The values that follow come from paper PMC10303200 (ACS Central Science, 2023).

What all share (format): binding
For assay [1], the target named is T1, DC-SIGN CRD (Homo sapiens, UniProt Q9NNX6).
T1 sequence (Q9NNX6 250-404): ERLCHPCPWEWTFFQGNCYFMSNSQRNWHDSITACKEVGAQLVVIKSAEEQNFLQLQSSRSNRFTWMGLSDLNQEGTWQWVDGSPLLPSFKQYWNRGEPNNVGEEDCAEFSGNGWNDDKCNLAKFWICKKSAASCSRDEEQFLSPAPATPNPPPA
Briefly: Direct native ESI-MS (submicron emitters) with a mixture of ten glycans (G2, G5, G10, G14-G20), 200 mM ammonium acetate with 2.5 mM calcium salt, pH 7.4. Details: gene CD209; carbohydrate recognition domain, residues 250-404, MW 17 794 Da. Particulars: SD, n = 6; read-out: Kd (nMS), Table S5.

Assay [2] concerns the target T2, GAL-3C (Homo sapiens, UniProt P17931). The assay is described as follows: COIN-nMS with a mixture of ten glycans (G2, G5-G13), 200 mM ammonium acetate, pH 6.9. Particulars: SD, n = 8; read-out: Kd (COIN-nMS), Table S3. Details: gene LGALS3; C-terminal carbohydrate recognition domain fragment, residues 107-250.
Assay [3] deals with T1, DC-SIGN CRD. Briefly: COIN-nMS (submicron emitters) with a mixture of ten glycans (G2, G5, G10, G14-G20), 200 mM ammonium acetate with 2.5 mM calcium salt, pH 7.4. More on the design: gene CD209; carbohydrate recognition domain, residues 250-404, MW 17 794 Da. Particulars: SD, n = 6; read-out: Kd (COIN-nMS), Table S5.
The target in assay [4] is T3, GAL-7 (Homo sapiens, UniProt P47929).
T3 construct: gene LGALS7; homodimer (monomer MW 14.94 kDa)
T3 sequence (P47929 whole entry): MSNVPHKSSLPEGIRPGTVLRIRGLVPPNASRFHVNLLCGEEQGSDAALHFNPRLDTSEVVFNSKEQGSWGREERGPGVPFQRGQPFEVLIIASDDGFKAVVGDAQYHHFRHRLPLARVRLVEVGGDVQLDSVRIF
Briefly: COIN-nMS of the GAL-7 homodimer with a mixture of ten glycans (G2, G5-G13), 200 mM ammonium acetate, pH 6.9. Particulars: SD, n = 8; read-out: Kd (COIN-nMS), Table S4.

Assay [5] addresses T3, GAL-7. The assay is described as follows: Direct native ESI-MS of the GAL-7 homodimer with a mixture of ten glycans (G2, G5-G13), 200 mM ammonium acetate, pH 6.9. Particulars: SD, n = 8; read-out: Kd (nMS), Table S4.
In assay [6] the target is T2, GAL-3C. The assay is described as follows: Direct native ESI-MS with a mixture of ten glycans (G2, G5-G13), 200 mM ammonium acetate, pH 6.9. Details: gene LGALS3; C-terminal carbohydrate recognition domain fragment, residues 107-250. Particulars: SD, n = 8; read-out: Kd (nMS), Table S3.
Assay [7] deals with MAA (Maackia amurensis agglutinin). Briefly: COIN-CaR-nMS. Particulars: native and all α2-3-linked N-glycan natural libraries and purified 3SL, 3SLN; pH 6.9.
The target of assay [8] is T1, DC-SIGN CRD. Briefly: direct nMS affinity measurement. More on the design: The carbohydrate recognition domain (CRD) of DC-SIGN (residues 250–404, MW 17 794 Da); made in house. Particulars: glycans present as a mixture (G2, G5, G10, G14-G20); pH 7.4.
In assay [9] the target is T1, DC-SIGN CRD. The assay is described as follows: COIN-nMS affinity measurement. Details: The carbohydrate recognition domain (CRD) of DC-SIGN (residues 250–404, MW 17 794 Da); made in house. Particulars: glycans present as a mixture (G2, G5, G10, G14-G20); average of six measurements; pH 7.4; read-out: Kd (COIN-nMS).

T2 sequence (P17931 107-250): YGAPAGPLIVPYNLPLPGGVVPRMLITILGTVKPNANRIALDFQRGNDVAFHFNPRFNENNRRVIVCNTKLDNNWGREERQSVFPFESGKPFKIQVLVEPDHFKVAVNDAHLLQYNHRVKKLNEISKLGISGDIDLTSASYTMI

For the compound `CC(=O)N[C@H]1[C@@H](O[C@H]2[C@@H](O)[C@@H](CO)O[C@@H](O[C@H]3[C@H](O)[C@@H](NC(C)=O)C(O)O[C@@H]3CO)[C@@H]2O[C@@H]2O[C@@H](C)[C@@H](O)[C@@H](O)[C@@H]2O)O[C@H](CO)[C@H](O)[C@@H]1O` (stereo partly drawn) [G10, α-D-GalNAc(1→3)-[α-L-Fuc(1→2)]-β-D-Gal(1→4)-D-GlcNAc], the Kd is 6010 µM in assay [1]; 10.9 µM in assay [2]; 2920 µM in [3]; 437 µM in assay [4]; 731 µM in assay [5]; 17.9 µM in [6].
Regarding `OC[C@H]1O[C@H](O[C@@H]2[C@H](O)[C@@H](OC[C@H]3OC(O)[C@@H](O)[C@@H](O[C@H]4O[C@H](CO)[C@@H](O)[C@H](O)[C@@H]4O[C@H]4O[C@H](CO)[C@@H](O)[C@H](O)[C@@H]4O[C@H]4O[C@H](CO)[C@@H](O)[C@H](O)[C@@H]4O)[C@@H]3O)O[C@H](CO[C@H]3O[C@H](CO)[C@@H](O)[C@H](O)[C@@H]3O[C@H]3O[C@H](CO)[C@@H](O)[C@H](O)[C@@H]3O)[C@H]2O)[C@@H](O)[C@@H](O)[C@@H]1O` (stereo partly drawn) [G14, α-D-Man-(1→2)-α-D-Man-(1→6)-[α-D-Man-(1→3)]-α-D-Man-(1→6)-[α-D-Man-(1→2)-α-D-Man-(1→2)-α-D-Man-(1→3)]-α-D-Man], the Kd in [1] was 270 µM; in [3], 260 µM.
On to `OC[C@H]1O[C@H](OC[C@H]2O[C@H](OC[C@H]3OC(O)[C@@H](O)[C@@H](O[C@H]4O[C@H](CO)[C@@H](O)[C@H](O)[C@@H]4O[C@H]4O[C@H](CO)[C@@H](O)[C@H](O)[C@@H]4O)[C@@H]3O)[C@@H](O)[C@@H](O[C@H]3O[C@H](CO)[C@@H](O)[C@H](O)[C@@H]3O)[C@@H]2O)[C@@H](O)[C@@H](O)[C@@H]1O` (stereo partly drawn) [G16, α-D-Man-(1→3)[α-D-Man(1→6)]-α-D-Man(1→6)[α-D-Man(1→2)-α-D-Man-(1→3)]-α-D-Man], for which the Kd was 810 µM in assay [1] and 560 µM in assay [3].
As to `CC(=O)N[C@H]1[C@H](O[C@H]2[C@@H](O)[C@@H](CO)OC(O)[C@@H]2O)O[C@H](CO)[C@@H](O[C@@H]2O[C@@H](C)[C@@H](O)[C@@H](O)[C@@H]2O)[C@@H]1O[C@@H]1O[C@H](CO)[C@H](O)[C@H](O)[C@H]1O[C@@H]1O[C@@H](C)[C@@H](O)[C@@H](O)[C@@H]1O` (stereo partly drawn) [G17, blood group antigen G17], the Kd in [1] came out at 620 µM; in [3] it was 550 µM.
In the same order, the values of `CC(=O)N[C@H]1[C@H](O[C@H]2[C@@H](O)[C@@H](CO)O[C@@H](O[C@H]3[C@H](O)[C@@H](O)C(O)O[C@@H]3CO)[C@@H]2O)O[C@H](CO)[C@@H](O[C@@H]2O[C@H](CO)[C@H](O)[C@H](O[C@H]3O[C@H](CO)[C@H](O)[C@H](O)[C@H]3O)[C@H]2O[C@@H]2O[C@@H](C)[C@@H](O)[C@@H](O)[C@@H]2O)[C@@H]1O` (stereo partly drawn) [G18, blood group antigen G18] are 3330 µM and 1870 µM.
In the same order, the values of `OC[C@H]1O[C@H](OC[C@H]2O[C@H](OC[C@H]3OC(O)[C@@H](O)[C@@H](O)[C@@H]3O)[C@@H](O)[C@@H](O[C@H]3O[C@H](CO)[C@@H](O)[C@H](O)[C@@H]3O)[C@@H]2O)[C@@H](O)[C@@H](O)[C@@H]1O` (stereo partly drawn) [G19, oligomannose glycan G19] are 1180 µM and 1500 µM.
With `OC[C@H]1O[C@H](O[C@H]2[C@H](O)[C@@H](O)[C@@H](O[C@H]3[C@H](O)[C@@H](O)[C@@H](O[C@H]4[C@H](O)[C@@H](O)[C@@H](O[C@H]5[C@H](O)[C@@H](O)C(O)O[C@@H]5CO)O[C@@H]4CO)O[C@@H]3CO)O[C@@H]2CO)[C@H](O)[C@@H](O)[C@@H]1O` (stereo partly drawn) [G20, maltopentaose], the Kd was found to be 2410 µM in [1] and 1830 µM in assay [3].
Take `CC(=O)N[C@H]1[C@H](O[C@H]2[C@H](O)[C@@H](NC(C)=O)C(O)O[C@@H]2CO[C@@H]2O[C@@H](C)[C@@H](O)[C@@H](O)[C@@H]2O)O[C@H](CO)[C@@H](O[C@@H]2O[C@H](CO[C@H]3O[C@H](CO)[C@@H](O)[C@H](O)[C@@H]3O[C@@H]3O[C@H](CO)[C@@H](O[C@@H]4O[C@H](CO)[C@H](O)[C@H](O)[C@H]4O)[C@H](O)[C@H]3NC(C)=O)[C@@H](O)[C@H](O[C@H]3O[C@H](CO)[C@@H](O)[C@H](O)[C@@H]3O[C@@H]3O[C@H](CO)[C@@H](O[C@@H]4O[C@H](CO[C@]5(C(=O)O)C[C@H](O)[C@@H](NC(C)=O)[C@H]([C@H](O)[C@H](O)CO)O5)[C@H](O)[C@H](O)[C@H]4O)[C@H](O)[C@H]3NC(C)=O)[C@@H]2O)[C@@H]1O` (stereo partly drawn) [HexNAc4Hex5Fuc1NeuAc1]: in assay [7], the affinity, expressed as Kd, was 0.57 ± 0.16 µM.
Still for that read-out and setting: the value for `CC(=O)N[C@H]1[C@H](O[C@H]2[C@H](O)[C@@H](NC(C)=O)C(O)O[C@@H]2CO[C@@H]2O[C@@H](C)[C@@H](O)[C@@H](O)[C@@H]2O)O[C@H](CO)[C@@H](O[C@@H]2O[C@H](CO[C@H]3O[C@H](CO)[C@@H](O)[C@H](O)[C@@H]3O[C@@H]3O[C@H](CO)[C@@H](O[C@@H]4O[C@H](CO[C@]5(C(=O)O)C[C@H](O)[C@@H](NC(C)=O)[C@H]([C@H](O)[C@H](O)CO)O5)[C@H](O)[C@H](O)[C@H]4O)[C@H](O)[C@H]3NC(C)=O)[C@@H](O)[C@H](O[C@H]3O[C@H](CO)[C@@H](O)[C@H](O)[C@@H]3O[C@@H]3O[C@H](CO)[C@@H](O[C@@H]4O[C@H](CO[C@]5(C(=O)O)C[C@H](O)[C@@H](NC(C)=O)[C@H]([C@H](O)[C@H](O)CO)O5)[C@H](O)[C@H](O)[C@H]4O)[C@H](O)[C@H]3NC(C)=O)[C@@H]2O)[C@@H]1O` (stereo partly drawn) [HexNAc4Hex5Fuc1NeuAc2] was 0.39 ± 0.08 µM.
Same read-out and setting: the value for `CC(=O)N[C@H]1[C@H](O[C@H]2[C@H](O)[C@@H](NC(C)=O)C(O)O[C@@H]2CO)O[C@H](CO)[C@@H](O[C@@H]2O[C@H](CO[C@H]3O[C@H](CO)[C@@H](O)[C@H](O)[C@@H]3O[C@@H]3O[C@H](CO)[C@@H](O[C@@H]4O[C@H](CO[C@]5(C(=O)O)C[C@H](O)[C@@H](NC(C)=O)[C@H]([C@H](O)[C@H](O)CO)O5)[C@H](O)[C@H](O)[C@H]4O)[C@H](O)[C@H]3NC(C)=O)[C@@H](O)[C@H](O[C@H]3O[C@H](CO)[C@@H](O)[C@H](O)[C@@H]3O[C@@H]3O[C@H](CO)[C@@H](O[C@@H]4O[C@H](CO[C@]5(C(=O)O)C[C@H](O)[C@@H](NC(C)=O)[C@H]([C@H](O)[C@H](O)CO)O5)[C@H](O)[C@H](O)[C@H]4O)[C@H](O)[C@H]3NC(C)=O)[C@@H]2O)[C@@H]1O` (stereo partly drawn) [HexNAc4Hex5NeuAc2] was 0.52 ± 0.2 µM.
On the same count and under the same terms, the value for `CC(=O)N[C@H]1[C@H](O[C@H]2[C@H](O)[C@@H](NC(C)=O)C(O)O[C@@H]2CO)O[C@H](CO)[C@@H](O[C@@H]2O[C@H](CO[C@H]3O[C@H](CO)[C@@H](O)[C@H](O)[C@@H]3O[C@@H]3O[C@H](CO)[C@@H](O[C@@H]4O[C@H](CO[C@]5(C(=O)O)C[C@H](O)[C@@H](NC(=O)CO)[C@H]([C@H](O)[C@H](O)CO)O5)[C@H](O)[C@H](O)[C@H]4O)[C@H](O)[C@H]3NC(C)=O)[C@@H](O)[C@H](O[C@H]3O[C@H](CO)[C@@H](O)[C@H](O)[C@@H]3O[C@@H]3O[C@H](CO)[C@@H](O[C@@H]4O[C@H](CO[C@]5(C(=O)O)C[C@H](O)[C@@H](NC(=O)CO)[C@H]([C@H](O)[C@H](O)CO)O5)[C@H](O)[C@H](O)[C@H]4O)[C@H](O)[C@H]3NC(C)=O)[C@@H]2O)[C@@H]1O` (stereo partly drawn) [HexNAc4Hex5NeuGc2] was 0.49 ± 0.2 µM.
On to “α-D-Man-(1→2)-α-D-Man-(1→3)-[α-D-Man-(1→6)-[α-D-Man-(1→2)-α-D-Man-(1→3)]-α-D-Man [Glycan G15]”, for which the Kd in assay [8] worked out at 390 ± 50 µM; in assay [9], 410 ± 40 µM.

As usually defined, the Kd is the constant that tells how readily two partners part at equilibrium.
